Experimental data published in ChEMBL document CHEMBL1201862, “PubChem BioAssay data set” (2004).
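Compound exposure: 48 hours, 5 concentrations, 96-well plates. GI50 is the concentration that inhibits growth by half.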 Activity calls are given as the source filed them. No stated cut-off is given here; in the data, active = GI50 up to about 1.1 µM and inactive = higher.

Tests used:
Assay in all cases: NCI anticancer screen, dose series, 48 h
HCT-116 = test system: HCT-116
HCT-15 = test system: HCT-15
TK-10 = test system: TK-10
ACHN = test system: ACHN
PC-3 = test system: PC-3
NCI-H522 = test system: NCI-H522
UO-31 = test system: UO-31
Malme-3M = test system: Malme-3M
SN12C = test system: SN12C
HOP-62 = test system: HOP-62
HT-29 = test system: HT-29
UACC-257 = test system: UACC-257
DU-145 = test system: DU-145
UACC-62 = test system: UACC-62
SF-295 = test system: SF-295
RXF 393 = test system: RXF 393
U-251 = test system: U-251
M14 = test system: M14
NCI-H226 = test system: NCI-H226
NCI-H23 = test system: NCI-H23

| Compound | GI50 (HCT-116) | GI50 (HCT-15) [µM] | GI50 (TK-10) | GI50 (ACHN) | GI50 (PC-3) | GI50 (NCI-H522) | GI50 (UO-31) | GI50 (Malme-3M) | GI50 (SN12C) | GI50 (HOP-62) | GI50 (HT-29) | GI50 (UACC-257) | GI50 (DU-145) | GI50 (UACC-62) | GI50 (SF-295) | GI50 (RXF 393) | GI50 (U-251) | GI50 (M14) | GI50 (NCI-H226) | GI50 (NCI-H23) |
| --- | --- | --- | --- | --- | --- | --- | --- | --- | --- | --- | --- | --- | --- | --- | --- | --- | --- | --- | --- | --- |
| CCOC1c2cc(OC)c(OC)cc2-c2ccc3ccccc3c2N1C (stereo not given) | 8.59 µM (inactive) | 60.1 | 31.6 µM (inactive) | 30.3 µM (inactive) | 5.15 µM (inactive) | 3.02 µM (inactive) | 44.6 µM (inactive) | 9.16 µM (inactive) | 7.76 µM (inactive) | 15.7 µM (inactive) | 10.9 µM (inactive) | 16.6 µM (inactive) | 15 µM (inactive) | 12.6 µM (inactive) | 24.4 µM (inactive) | 21.7 µM (inactive) | 6.41 µM (inactive) | 19.3 µM (inactive) | 19.2 µM (inactive) | 8 µM (inactive) |
| O=C(O)CSCc1cccc2ccccc12 | > 100 µM (inactive) | > 100 | 48.8 µM (inactive) | > 100 µM (inactive) | > 100 µM (inactive) | > 100 µM (inactive) | > 100 µM (inactive) | > 100 µM (inactive) | > 100 µM (inactive) | > 100 µM (inactive) | > 100 µM (inactive) | 62.1 µM (inactive) | > 100 µM (inactive) | > 100 µM (inactive) | > 100 µM (inactive) | > 100 µM (inactive) | > 100 µM (inactive) | > 100 µM (inactive) | > 100 µM (inactive) | > 100 µM (inactive) |
| N/C(=N\Nc1ccc(S(N)(=O)=O)cc1)c1cnccn1 | > 100 µM (inactive) | > 100 | > 100 µM (inactive) | > 100 µM (inactive) | > 100 µM (inactive) | > 100 µM (inactive) | > 100 µM (inactive) | > 100 µM (inactive) | > 100 µM (inactive) | > 100 µM (inactive) | > 100 µM (inactive) | > 100 µM (inactive) | > 100 µM (inactive) | > 100 µM (inactive) | > 100 µM (inactive) | > 100 µM (inactive) | > 100 µM (inactive) | > 100 µM (inactive) | > 100 µM (inactive) | > 100 µM (inactive) |
| Cc1csc2nc(-c3cccc([N+](=O)[O-])c3)c(/C=N/N=C(N)N)n12 | 1.7 µM (inactive) | 1.71 | 1.78 µM (inactive) | 1.8 µM (inactive) | 1.63 µM (inactive) | 1.83 µM (inactive) | 1.39 µM (inactive) | 1.72 µM (inactive) | 1.69 µM (inactive) | 1.71 µM (inactive) | 1.81 µM (inactive) | 1.78 µM (inactive) | 2.19 µM (inactive) | 1.46 µM (inactive) | 1.69 µM (inactive) | 1.7 µM (inactive) | 1.67 µM (inactive) | 1.71 µM (inactive) | 1.64 µM (inactive) | 1.71 µM (inactive) |
| O=C1CC(c2ccccc2Cl)C2(C(=O)NC(=S)NC2=O)C(c2ccccc2Cl)C1 (stereo not given) | 20 µM (inactive) | 21.1 | 0.0302 µM (active) | 24.8 µM (inactive) | 23.6 µM (inactive) | 34.1 µM (inactive) | 46.5 µM (inactive) | 1.56 µM (inactive) | 25.9 µM (inactive) | 34.2 µM (inactive) | 74 µM (inactive) | 13.6 µM (inactive) | 34 µM (inactive) | 19.8 µM (inactive) | 22.9 µM (inactive) | 16.9 µM (inactive) | 15.3 µM (inactive) | 17.1 µM (inactive) | 28.6 µM (inactive) | 16.7 µM (inactive) |
| CC(NNC(=O)c1ccncc1)c1ccc(Cl)c(Cl)c1 (stereo not given) | > 100 µM (inactive) | > 100 | > 100 µM (inactive) | > 100 µM (inactive) | 71.3 µM (inactive) | > 100 µM (inactive) | 54.6 µM (inactive) | > 100 µM (inactive) | > 100 µM (inactive) | > 100 µM (inactive) | > 100 µM (inactive) | > 100 µM (inactive) | > 100 µM (inactive) | > 100 µM (inactive) | > 100 µM (inactive) | > 100 µM (inactive) | > 100 µM (inactive) | 67.9 µM (inactive) | > 100 µM (inactive) | 57.7 µM (inactive) |
| CC1CCC2c3c([nH]c4ccccc34)C3C(=O)N(C4CCCCC4)C(=O)C3C2C1 (stereo not given) | 11.9 µM (inactive) | 49.8 | 13.4 µM (inactive) | 13.5 µM (inactive) | 38.3 µM (inactive) | > 100 µM (inactive) | 19.8 µM (inactive) | 29.3 µM (inactive) | 22.9 µM (inactive) | 14.4 µM (inactive) | > 100 µM (inactive) | 46.3 µM (inactive) | 30 µM (inactive) | 12.2 µM (inactive) | 16.3 µM (inactive) | 13.7 µM (inactive) | 12.7 µM (inactive) | 23.7 µM (inactive) | 16.5 µM (inactive) | 23.7 µM (inactive) |
| CCN(CCCl)c1cc(CN(C)C)cc(NC(=O)c2ccc(C(=O)Nc3cccc(CN(C)C)c3)cc2)c1 | 0.51 µM (active) | 32.4 | 3.73 µM (inactive) | 2.94 µM (inactive) | 0.305 µM (active) | 0.0161 µM (active) | 27.7 µM (inactive) | 1.31 µM (inactive) | 0.357 µM (active) | 0.326 µM (active) | 1.35 µM (inactive) | 1.83 µM (inactive) | 3.74 µM (inactive) | 1.27 µM (inactive) | 1.36 µM (inactive) | 0.247 µM (active) | 0.225 µM (active) | 4.27 µM (inactive) | 3.21 µM (inactive) | 1.54 µM (inactive) |
| CNC1C(OC2C(OC3C(O)C(O)C(O)C(O)C3O)OC(C)C2(O)CO)OC(CO)C(O)C1O.N=C(N)N.NC(=O)O (stereo not given) | > 100 µM (inactive) | > 100 | > 100 µM (inactive) | > 100 µM (inactive) | > 100 µM (inactive) | > 100 µM (inactive) | > 100 µM (inactive) | > 100 µM (inactive) | > 100 µM (inactive) | > 100 µM (inactive) | > 100 µM (inactive) | > 100 µM (inactive) | > 100 µM (inactive) | > 100 µM (inactive) | > 100 µM (inactive) | > 100 µM (inactive) | > 100 µM (inactive) | > 100 µM (inactive) | > 100 µM (inactive) | > 100 µM (inactive) |
| CC(=O)Oc1cc2c[n+](C)c3c4cc(OC(C)=O)c(OC(C)=O)cc4ccc3c2cc1OC(C)=O | 2.3 µM (inactive) | 2.69 | > 100 µM (inactive) | 4.68 µM (inactive) | 4.07 µM (inactive) | 0.647 µM (active) | 1.36 µM (inactive) | 2.39 µM (inactive) | 3.43 µM (inactive) | 3.71 µM (inactive) | 2.72 µM (inactive) | 14.5 µM (inactive) | 3.78 µM (inactive) | 3.97 µM (inactive) | 4.72 µM (inactive) | 0.168 µM (active) | 1.72 µM (inactive) | 4.38 µM (inactive) | 1.54 µM (inactive) | 4.23 µM (inactive) |
| C=C1CC[C@@H]2[C@](C)(COC(=O)CCC(=O)O)CCC[C@@]2(C)[C@@H]1CCC1=CC(=O)OC1 | > 100 µM (inactive) | > 100 | > 100 µM (inactive) | > 100 µM (inactive) | > 100 µM (inactive) | > 100 µM (inactive) | > 100 µM (inactive) | > 100 µM (inactive) | > 100 µM (inactive) | > 100 µM (inactive) | > 100 µM (inactive) | > 100 µM (inactive) | 5.97 µM (inactive) | > 100 µM (inactive) | > 100 µM (inactive) | > 100 µM (inactive) | > 100 µM (inactive) | > 100 µM (inactive) | > 100 µM (inactive) | > 100 µM (inactive) |
| COc1ccc(-c2sc(Br)c3c2C(=O)C2OC(=O)NC32)cc1OC (stereo not given) | > 100 µM (inactive) | > 100 | > 100 µM (inactive) | > 100 µM (inactive) | > 100 µM (inactive) | > 100 µM (inactive) | > 100 µM (inactive) | > 100 µM (inactive) | > 100 µM (inactive) | > 100 µM (inactive) | > 100 µM (inactive) | > 100 µM (inactive) | > 100 µM (inactive) | > 100 µM (inactive) | > 100 µM (inactive) | > 100 µM (inactive) | > 100 µM (inactive) | > 100 µM (inactive) | > 100 µM (inactive) | > 100 µM (inactive) |
| COC(=O)/C(=C(\C)NC(C)=O)c1c(C(=O)OC)[nH]c2ccccc12 | > 100 µM (inactive) | > 100 | > 100 µM (inactive) | > 100 µM (inactive) | > 100 µM (inactive) | 95.3 µM (inactive) | > 100 µM (inactive) | > 100 µM (inactive) | > 100 µM (inactive) | > 100 µM (inactive) | > 100 µM (inactive) | > 100 µM (inactive) | > 100 µM (inactive) | > 100 µM (inactive) | > 100 µM (inactive) | > 100 µM (inactive) | > 100 µM (inactive) | > 100 µM (inactive) | > 100 µM (inactive) | > 100 µM (inactive) |
| COc1ccc(/C=C2\Sc3nnc(C)n3N=C2c2cc(F)c(Cl)cc2Cl)cc1OC | 5.98 µM (inactive) | 6.93 | 17.9 µM (inactive) | 12.6 µM (inactive) | 18.7 µM (inactive) | 11.3 µM (inactive) | 10.4 µM (inactive) | 18.3 µM (inactive) | 17.5 µM (inactive) | 17 µM (inactive) | 13.2 µM (inactive) | 17 µM (inactive) | 14.7 µM (inactive) | 16.7 µM (inactive) | 22.1 µM (inactive) | 15.9 µM (inactive) | 15.8 µM (inactive) | 13.6 µM (inactive) | 23.2 µM (inactive) | 12.4 µM (inactive) |
